# Reference: patent publication US11364275B2, “Linear lipopeptide paenipeptins and methods of using the same” (priority 2017, dated 2022)
# Entries after “also recorded” stand apart in the source; their conditions may differ. Where a SMILES comes first, the peptide text is derived from it. [ ]: non-standard residue; d: D form. The star is where a group is joined. Dab = NCC[C@H](N)C(=O)O; Hexanoyl = CCCCCC(=O)*
# Legend:
# [1] = system: Klebsiella pneumoniae ATCC 13883; assay: MIC of antibiotics with or without paenipeptin analogues (potentiation); type: cell-based; details: K. pneumoniae ATCC 13883
# Source text: (§1) Gram-negative bacteria, including Acinetobacter and Klebsiella, are intrinsically resistant to the hydrophobic antibiotic rifampicin.
# [2] = system: Acinetobacter baumannii ATCC 19606; assay: as above; type: cell-based; details: A. baumannii ATCC 19606
# Source text: as §1
# [3] = system: K. pneumoniae FDA-CDC AR 0068
# [4] = system: A. baumannii FDA-CDC AR 0063; assay: Time-kill kinetics in 95% human serum, alone and combined; type: cell-based, Acinetobacter baumannii; details: A. baumannii AR 0063, 24 h
# Protocol: (§2) Bacterial viable counts were determined at 0, 2, 4, 6, and 24 h after antimicrobial treatment. Bacterial surviving counts at 24 h endpoints were subjected to analysis of variance (ANOVA) followed by Tukey's honest significant difference (HSD) tests using SPSS Statistics (version 24; SPSS, Inc., Chicago, Ill., USA).
# To further test the therapeutic potential of paenipeptin analogues, the time-kill kinetics assays of paenipeptins alone or in combination with other antibiotics were performed in 95% human serum in vitro. Without antimicrobial treatment, the population of A. baumannii FDA-CDC AR 0063 increased from 5.8 log to 9.3 log within 24 h. […] (FIG. 7A).
# [5] = system: Staphylococcus aureus ATCC 29213; type: cell-based; details: ATCC 29213
# [6] = system: Acinetobacter baumannii ATCC 19606; type: cell-based; details: ATCC 19606
# [7] = system: K. pneumoniae FDA-CDC AR0097; assay: Time-kill kinetics in 95% human serum, alone and combined; type: cell-based, Klebsiella pneumoniae
# Protocol: as §2
# To further test the therapeutic potential of paenipeptin analogues, the time-kill kinetics assays of paenipeptins alone or in combination with other antibiotics were performed in 95% human serum in vitro.
# [8] = system: A. baumannii FDA-CDC AR 0052; details: FDA-CDC AR 0052
# [9] = system: methicillin-resistant S. aureus ATCC 43300; type: cell-based, Staphylococcus aureus; details: ATCC 43300
# Protocol: (§3) The minimum inhibitory concentration (MIC) of paenipeptin analogues was determined using the broth microdilution method (Wirker, M. A. Methods for Dilution Antimicrobial Susceptibility Tests for Bacteria that Grow Aerobically: Approved Standard M07-A8; Clinical and Laboratory Standards Institute, Wayne, Pa., 2009). Seven reference strains (Acinetobacter baumannii ATCC 19606, Escherichia coli ATCC 25922, Klebsiella pneumoniae ATCC 13883, Pseudomonas aeruginosa ATCC 27853, Enterococcus faecium ATCC 19434, Staphylococcus aureus ATCC 29213 and methicillin-resistant S. aureus ATCC 43300) were subjected to MIC testing.
# (§4) Paenipeptin analogues were two-fold diluted in tryptic soy broth (TSB; Becton Dickinson) and mixed with an equal volume of bacterial suspensions in TSB containing approximately 1.5×10^5 colony-forming units (CFU)/mL in a clear UV-sterilized 96-well microtiter plate (NBS, Corning Inc., Corning, N.Y.). […] The microtiter plate was incubated at 37° C. for 18-20 h.
# [10] = system: K. pneumoniae FDA-CDC AR 0034; details: K. pneumoniae AR 0034
# [11] = system: A. baumannii FDA-CDC AR 0083; details: A. baumannii AR 0083
# [12] = Cytotoxicity, MTT assay; type: cell-based, human; details: human, HEK 293 cells
# Protocol: Cytotoxicity of paenipeptin analogues was determined against a human kidney cell line (HEK 293) using MTT assays (Huang E, Yousef AE. 2014. Paenibacterin, a novel broad-spectrum lipopeptide antibiotic, neutralises endotoxins and promotes survival in a murine model of Pseudomonas aeruginosa-induced sepsis. Int J Antimicrob Agents 44: 74-77). Cell viability was measured at 24 h following the addition of lipopeptides at concentrations between 30-105 μg/ml. The viability of human embryonic kidney cells (HEK 293) decreased with the increase of paenipeptin concentration. The viability of HEK 293 cells in the presence of paenipeptin analogue 1 and 15 at 105 μg/ml was 61% and 67%, respectively (Table 10). The relatively low cytotoxicity of paenipeptin analogue 1 and 15 was correlated with their low hemolytic activity against red blood cells.
# [13] = system: K. pneumoniae FDA-CDC AR 0097; details: K. pneumoniae AR 0097
# [14] = system: K. pneumoniae FDA-CDC AR 0080; details: K. pneumoniae AR 0080
# [15] = system: Escherichia coli ATCC 25922; type: cell-based; details: ATCC 25922
# [16] = system: A. baumannii FDA-CDC AR 0063; type: cell-based, Acinetobacter baumannii; details: FDA-CDC AR 0063, 24 h
# Protocol: as §2
# [17] = system: Klebsiella pneumoniae ATCC 13883; type: cell-based; details: ATCC 13883
# Protocol: as §3, §4
# [18] = system: Enterococcus faecium ATCC 19434; type: cell-based; details: ATCC 19434
# Protocol: as §3, §4
# [19] = system: K. pneumoniae FDA-CDC AR 0044
# [20] = system: A. baumannii FDA-CDC AR 0037; details: A. baumannii AR 0037
# [21] = system: A. baumannii FDA-CDC AR 0063; details: A. baumannii AR 0063
# [22] = system: Pseudomonas aeruginosa ATCC 27853; type: cell-based; details: ATCC 27853
# [23] = system: rabbit red blood cells; assay: Hemolytic activity; type: cell-based; details: for Hemolysis: relative to Triton X-100
# How it was run: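 Washed defibrinated rabbit RBCs in PBS pH 7.2 incubated 30 min at 37 °C with paenipeptin analogues at 16–128 μg/mL final. Released hemoglobin read at 415 nm in the supernatant; % hemolysis relative to 0.1% Triton X-100.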
# [24] = system: K. pneumoniae UAMS-KPPR3; assay: MIC, polymyxin-resistant strain; type: cell-based, Klebsiella pneumoniae
# Protocol: as §3, §4
# (§5) There were at least three independent experiments with one replicate in each experiment.
# [25] = system: E. coli UAMS-ECPR2; details: E. coli UAMS-ECPR2, polymyxin-resistant
# Protocol: (§6) The minimum inhibitory concentration (MIC) of paenipeptin analogues was determined using the broth microdilution method (Wirker, M. A. Methods for Dilution Antimicrobial Susceptibility Tests for Bacteria that Grow Aerobically: Approved Standard M07-A8; Clinical and Laboratory Standards Institute, Wayne, Pa., 2009).
# as §4, §5
# [26] = system: Escherichia coli AR 0494 (mcr-1); details: E. coli AR 0494, mcr-1, polymyxin-resistant
# Protocol: as §6, §4, §5
# [27] = system: Klebsiella pneumoniae AR 0109; details: K. pneumoniae AR 0109, polymyxin-resistant
# Protocol: as §6, §4, §5
# [28] = system: K. pneumoniae UAMS-KPPR1; assay: MIC, polymyxin-resistant strain; type: cell-based, Klebsiella pneumoniae
# Protocol: as §3, §4, §5
# [29] = system: E. coli UAMS-ECPR1; details: E. coli UAMS-ECPR1, polymyxin-resistant
# Protocol: as §6, §4, §5
compound,measurement,setting,value
CCCCCC(=O)N[C@@H](CCN)C(=O)N[C@H](C(=O)N[C@@H](CCN)C(=O)N[C@H](Cc1ccccc1)C(=O)N[C@@H](CC(C)C)C(=O)N[C@@H](CCN)C(=O)N[C@@H](C(=O)N[C@@H](CC(C)C)C(=O)N[C@@H](CO)C(N)=O)C(C)C)[C@@H](C)CC [Analogue 1] (Hexanoyl-[Dab]I[Dab][dF]L[Dab][dV]LS-NH2),MIC of rifampicin at 2 μg/mL of paenipeptin analogue,[1],0.0039 μg/ml
same,MIC of rifampicin at 4 μg/mL of paenipeptin analogue,[1],0.00195 μg/ml
same,MIC of rifampicin at 2 μg/mL of paenipeptin analogue,[2],0.0078-0.0156 μg/ml
same,MIC of rifampicin at 4 μg/mL of paenipeptin analogue,[2],0.00195-0.0039 μg/ml
same,Sensitization factor (rifampicin),[2]; MIC without / with 4 μg/mL paenipeptin,"4,096-8,192"
same,MIC alone,[3]; FDA-CDC AR 0068,>32 µg/mL
same,MIC of clarithromycin at the presence of PMBN or paenipeptin analogue at 4 μg/ml,[3]; K. pneumoniae AR 0068,1 μg/ml
same,MIC of rifampicin at the presence of PMBN or paenipeptin analogue at 4 μg/ml,[3]; K. pneumoniae AR 0068,0.0039-0.0156 μg/ml
same,"decrease of bacterial population, analogue 4 μg/ml in combination with rifampicin 4 μg/ml",[4],2.7 log
same,"log reduction, analogue 4 μg/ml in combination with clarithromycin 4 μg/ml",[4],1.3 log
same,MIC,[5],>32 µg/mL
same,MIC,[6],>32 µg/mL
same,"log reduction, analogue 4 μg/ml in combination with clarithromycin 4 μg/ml",[7]; 24 h,4.9 log
same,"log reduction, analogue 4 μg/ml in combination with rifampicin 4 μg/ml",[7]; 24 h,4.9 log
same,"log inactivation, single agent at 4 μg/ml",[7]; within 24 h,4.2 log
same,MIC alone,[8],2 to 4 µg/mL
same,MIC,[9],>32 µg/mL
same,MIC of clarithromycin at the presence of PMBN or paenipeptin analogue at 4 μg/ml,[10],0.25 μg/ml
same,MIC of rifampicin at the presence of PMBN or paenipeptin analogue at 4 μg/ml,[10],≤0.0019 μg/ml
same,MIC of clarithromycin at the presence of PMBN or paenipeptin analogue at 4 μg/ml,[11],16 μg/ml
same,MIC of rifampicin at the presence of PMBN or paenipeptin analogue at 4 μg/ml,[11],0.25-0.5 μg/ml
same,"viability at 24 h, 30 µg/mL",[12],85.2 ± 10.2%
same,"viability at 24 h, 45 µg/mL",[12],78.4 ± 11.2%
same,"viability at 24 h, 60 µg/mL",[12],78.4 ± 13.5%
same,"viability at 24 h, 75 µg/mL",[12],73.1 ± 11.3%
same,"viability at 24 h, 90 µg/mL",[12],69 ± 8.14%
same,"viability at 24 h, 105 µg/mL",[12],61 ± 6.38%
same,MIC of clarithromycin at the presence of PMBN or paenipeptin analogue at 4 μg/ml,[13],0.0313-0.0625 μg/ml
same,MIC of rifampicin at the presence of PMBN or paenipeptin analogue at 4 μg/ml,[13],0.0039-0.0078 μg/ml
same,MIC of clarithromycin at the presence of PMBN or paenipeptin analogue at 4 μg/ml,[14],0.0313 μg/ml
same,MIC of rifampicin at the presence of PMBN or paenipeptin analogue at 4 μg/ml,[14],0.0625 μg/ml
same,MIC,[15],8 to 16 µg/mL
same,"log reduction, analogue 4 μg/ml in combination with rifampicin 1 μg/ml",[16],4.7-5.1 log
same,MIC,[17],≥32 µg/mL
same,MIC,[18],>32 µg/mL
same,MIC alone,[19]; FDA-CDC AR 0044,16 µg/mL
same,MIC of clarithromycin at the presence of PMBN or paenipeptin analogue at 4 μg/ml,[19]; K. pneumoniae AR 0044,0.0156 μg/ml
same,MIC of rifampicin at the presence of PMBN or paenipeptin analogue at 4 μg/ml,[19]; K. pneumoniae AR 0044,≤0.0019 μg/ml
same,MIC of clarithromycin at the presence of PMBN or paenipeptin analogue at 4 μg/ml,[20],0.0313 μg/ml
same,MIC of rifampicin at the presence of PMBN or paenipeptin analogue at 4 μg/ml,[20],0.0039 μg/ml
same,increase in antibiotic activity of clarithromycin,[20]; analogue at 4 μg/mL,512 fold
same,MIC of clarithromycin at the presence of PMBN or paenipeptin analogue at 4 μg/ml,[21],0.0313 μg/ml
same,MIC of rifampicin at the presence of PMBN or paenipeptin analogue at 4 μg/ml,[21],≤0.0019 μg/ml
same,MIC,[22],8 to 16 µg/mL
same,Hemolysis,[23]; 16 μg/mL,0.48 ± 0.64%
same,Hemolysis,[23]; 32 μg/mL,0.41 ± 0.58%
same,Hemolysis,[23]; 64 μg/mL,0.08 ± 0.85%
same,hemolytic activity (in words),[23]; 128 μg/mL,little hemolysis; also recorded: nonhemolytic
same,Hemolysis,[23]; 128 μg/mL,0.61 ± 0.25%
Polymyxin B [reference compound],Minimum inhibitory concentration,[24],>32 µg/mL
same,Minimum inhibitory concentration,[25],32 µg/mL
same,Minimum inhibitory concentration,[26],2 to 8 µg/mL
same,Minimum inhibitory concentration,[27],16 to 32 µg/mL
same,Minimum inhibitory concentration,[28],>32 µg/mL
same,Minimum inhibitory concentration,[29],32 µg/mL
